Laboratory results taken from article PMC5766233, “Ternary copper(II) complex: NCI60 screening, toxicity studies, and evaluation of efficacy in xenograft models of nasopharyngeal carcinoma” (PLoS ONE, 2018).

Legend:
[1] = Cytotoxicity in rat primary hepatocytes (resazurin); conditions: male, Wistar, rat, freshly isolated rat primary hepatocytes
CYP1A = test: Cytochrome P450 induction assay in rat primary hepatocytes, CYP1A; assay type: in vitro ADME; conditions: 1.0 μM, 3 days
Description: %Activity=(averagearearatiooftreated/averagearearatioofbasalcontrol)x100

[2] = test system: BGC823 (gastric cancer cells) xenograft; design: method as in earlier work; conditions: cited from earlier work
NCI leukemia cell lines = conditions: cited from earlier work
[3] = test system: NCI60 human cancer cell line panel; conditions: ref cisplatin NSC number 119875; cited from earlier work

CC/C(=C(\c1ccccc1)c1ccc(OCCN(C)C)cc1)c1ccccc1 [Tamoxifen, reference compound]
IC50 at 72 h [1]: 5.1 µM

Cc1ccc2cc3c(ccc4ccccc43)c3c2c1CC3 [3-Methyl cholanthrene, reference compound]
Fold induction CYP1A (CYP1A): 10.9 | fold induction at 3 days, 1 µM (CYP1A; rat, rat primary hepatocytes, probe phenacetin (100 μM in HBSS)): > 10

[Ru(dmb)2(salH)]PF6
toxicity compared to cisplatin ([2]; 5 mg/kg): insignificant nephrotoxicity and nephrotoxicity | xenograft growth ([2]; 5 mg/kg): significantly suppressed

O=C([O-])c1ccccc1C(=O)[O-].[Cu+2].c1cnc2c(c1)ccc1cccnc12 [[Cu(o-phthalate)(phenanthroline)]]
sensitivity of most NCI leukemia cell lines (NCI leukemia cell lines): resistant

N.N.[Cl][Pt][Cl] [cisplatin]
GI50 [3]: 1.49 µM | organ damage ([2]; 4 mg/kg): considerable damage to liver and kidney | xenograft growth, compared with [Ru(dmb)2(salH)]PF6 ([2]; 4 mg/kg): slightly less effective
